{
  "source": "patent US20230181552A1",
  "about": "“EXTERNAL PREPARATION OF IMIDACLOPRID, PREPARATION METHOD AND USE THEREOF” (Qingdao Bolin Biological Technology Co., Ltd., priority 2021, published 2023)",
  "origin": "cited, not measured here",
  "key": {"[1]": {"system": "nicotinic receptor sites of mammals", "conditions": "background statement"}, "rabbits, mice and rats": {"system": "rabbits, mice and rats", "conditions": "sublethal doses, systemic use"}, "[2]": {"system": "postsynaptic nicotinic acetylcholine receptors in the central nervous system of insects", "conditions": "background statement"}},
  "data": [
    {"smiles": "O=[N+]([O-])NC1=NCCN1Cc1ccc(Cl)nc1", "note": "[Imidacloprid, imidacloprid]", "values": [
      {"measurement": "affinity to nicotinic receptor sites of mammals", "setting": "[1]", "result": "weak affinity"},
      {"measurement": "pharmacological activity in mammals", "setting": "rabbits, mice and rats", "result": "little pharmacological activity"},
      {"measurement": "affinity for postsynaptic nicotinic acetylcholine receptors in the central nervous system of insects", "setting": "[2]", "result": "high affinity"}
    ]}
  ]
}
